Results from PMC3818701 (The Pediatric infectious disease journal, 2013).
Read-outs that look alike come from different tables or passages of the source. Numbered stars: 1 amine (or outer) side, 2 acyl side, 3 side chain; on linkers, the order of the positions; unused ones are H or OH. Bridge positions count the residues as written; N and C are the ends. Square brackets hold non-standard residues; d marks the D form. Peptide text beside a SMILES is read from it. * marks the point of attachment. hTyr(3S-OH,4S-OH,3'-OSO3H) = N[C@H](C(=O)O)[C@H](O)[C@@H](O)c1ccc(O)c(OS(=O)(=O)O)c1; Orn(4R-OH,5R-OH) = O=C([C@H](C[C@@H](O)[C@@H](O)N[*:3])N[*:1])[*:2]; Pro(3S-OH,4S-Me) = C[C@H]1CN[C@H](C(=O)O)[C@H]1O; X1 = CCCCCOc1ccc(-c2cc(-c3ccc(C(=O)*)cc3)no2)cc1; Gln(3R-OH) = NC(=O)C[C@@H](O)[C@H](N)C(=O)O; Hyp = O=C(O)[C@@H]1C[C@@H](O)CN1

How the values were obtained:
Safety assessments = assay type: in vivo, human; conditions: for AE leading to discontinuation / Any AE / Any SAE / Deaths: SAF, number of children (%)
[1] = Plasma micafungin pharmacokinetics on day 7, Studies 2101 and 2102; assay type: in vivo, human; conditions: for Cmax / tmax / AUCtau / CLss / CLss/wt: day 7 plasma
[2] = cited from earlier work
[3] = cited from earlier work; for Cmax / Mean weight-adjusted CLss: children; for Mean AUCtau: febrile, neutropenic children with deep mycoses
[4] = adults, cited from earlier work
[5] = Study 2101, 3 mg/kg, 6–11 years (n = 13)
[6] = Study 2101, 3 mg/kg, 12–16 years (n = 12)
[7] = Study 2101, 4.5 mg/kg, 2–5 years (n = 31)
[8] = Study 2101, 4.5 mg/kg, 6–11 years (n = 20)
[9] = Study 2102, 4.5 mg/kg, 4 months–<2 years (n = 9)
[10] = Study 2101, 3 mg/kg i.v. once daily, 6–11 years (n = 4), min–max
[11] = Study 2101, 3 mg/kg i.v. once daily, 12–16 years (n = 8), median
[12] = Study 2101, 3 mg/kg i.v. once daily, 12–16 years (n = 8), min–max
[13] = Study 2101, 4.5 mg/kg i.v. once daily, 2–5 years (n = 8), median
[14] = Study 2101, 4.5 mg/kg i.v. once daily, 2–5 years (n = 8), min–max
[15] = Study 2101, 4.5 mg/kg i.v. once daily, 6–11 years (n = 3), median
[16] = Study 2101, 4.5 mg/kg i.v. once daily, 6–11 years (n = 3), min–max
[17] = Study 2101, 4.5 mg/kg i.v. once daily, 12–16 years (n = 1), mean
[18] = Study 2101, 4.5 mg/kg i.v. once daily, 12–16 years (n = 1), median
[19] = pooled analysis of Phase I, II, III trials, 296 children

CCCCCOc1ccc(-c2cc(-c3ccc(C(=O)N[C@H]4C[C@@H](O)[C@@H](O)NC(=O)[C@@H]5[C@@H](O)[C@@H](C)CN5C(=O)[C@H]([C@H](O)CC(N)=O)NC(=O)[C@H]([C@H](O)[C@@H](O)c5ccc(O)c(OS(=O)(=O)O)c5)NC(=O)[C@@H]5C[C@@H](O)CN5C(=O)[C@H]([C@@H](C)O)NC4=O)cc3)no2)cc1 [micafungin] (X1-[Orn(4R-OH,5R-OH)]T[Hyp][hTyr(3S-OH,4S-OH,3'-OSO3H)][Gln(3R-OH)][Pro(3S-OH,4S-Me)]; lactam 1-C)
Deaths considered related to micafungin treatment or to fungal infection (Safety assessments; Studies 2101 and 2102): None | Liver function abnormalities (Safety assessments; Study 2101 (Table 3)): 4–6% | AE leading to discontinuation (Safety assessments; [5]): 0 | Any AE (Safety assessments; [5]): 9 (69) | Any SAE (Safety assessments; [5]): 1 (8) | Deaths (Safety assessments; [5]): 0 | AE leading to discontinuation (Safety assessments; [6]): 2 (17) | Any AE (Safety assessments; [6]): 11 (92) | Any SAE (Safety assessments; [6]): 3 (25) | Deaths (Safety assessments; [6]): 1 (8) | AE leading to discontinuation (Safety assessments; [7]): 1 (3) | Any AE (Safety assessments; [7]): 25 (81) | Any SAE (Safety assessments; [7]): 3 (10) | Deaths (Safety assessments; [7]): 0 | AE leading to discontinuation (Safety assessments; [8]): 1 (5) | Any AE (Safety assessments; [8]): 16 (80) | Any SAE (Safety assessments; [8]): 2 (10) | Deaths (Safety assessments; [8]): 2 (10) | AE leading to discontinuation (Safety assessments; Study 2101, Total (n = 78)): 4 (5) | Any AE (Safety assessments; Study 2101, Total (n = 78)): 62 (80) | Any SAE (Safety assessments; Study 2101, Total (n = 78)): 9 (12) | Deaths (Safety assessments; Study 2101, Total (n = 78)): 3 (4) | AEs that led to permanent discontinuation of micafungin (Safety assessments; Study 2101, four children, all possibly or probably related): 5% | Permanent discontinuation due to hypomagnesemia (Safety assessments; Study 2101, n = 1/78): 1% | Permanent discontinuation due to pyrexia (Safety assessments; Study 2101, n = 1/78): 1% | Permanent discontinuation due to infusion-associated symptoms (Safety assessments; Study 2101, n = 2/78): 3% | SAEs considered related to micafungin treatment (Safety assessments; Study 2101, n = 2/78): 3% | AE considered related to micafungin: hypomagnesemia (Safety assessments; Study 2101, n = 5/78): 6% | Children with SAEs who recovered with no residual effects (Safety assessments; Study 2101, n = 6/9): 67% | AE considered related to micafungin: pyrexia (Safety assessments; Study 2101, n = 7/78): 9% | AE considered related to micafungin: infusion-associated symptoms (hypotension, hypertension, cyanosis) (Safety assessments; Study 2101, n = 9/78): 12% | Children experiencing SAEs other than death (Safety assessments; Study 2101, n = 9/78): 12% | AE vomiting (Safety assessments; Study 2101, n = 10/78): 13% | AE hypokalemia (Safety assessments; Study 2101, n = 11/78): 14% | AE pyrexia (Safety assessments; Study 2101, n = 15/78): 19% | Children experiencing at least one AE (Safety assessments; Study 2101, n = 62/78): 80% | AE leading to discontinuation (Safety assessments; [9]): 2 (22) | Any AE (Safety assessments; [9]): 9 (100) | Any SAE (Safety assessments; [9]): 5 (56) | Deaths (Safety assessments; [9]): 1 (11) | SAEs considered related to micafungin treatment (Safety assessments; Study 2102, n = 1/9 (pathological fracture, possibly related)): 11% | Children with SAEs who recovered with no residual effects (Safety assessments; Study 2102, n = 4/5): 80% | Children experiencing SAEs other than death (Safety assessments; Study 2102, n = 5/9): 56% | Abnormal liver function tests (NOS) considered related to micafungin (Safety assessments; Study 2102, one child of 9): 11% | AEs that led to permanent discontinuation of micafungin (Safety assessments; Study 2102, two children): 22% | Tolerability (Safety assessments; once-daily 3 mg/kg and 4.5 mg/kg, children and adolescents with proven, probable, or suspected Candida infection): well tolerated | Cmax ([1]; Study 2101, 3 mg/kg i.v. once daily, 6–11 years (n = 4), mean (SD), SD): 20.8 (4.1) µg/mL | tmax ([1]; Study 2101, 3 mg/kg i.v. once daily, 6–11 years (n = 4), median): 1.1 h | AUCtau [1, 10]: 191.8 to 300.1 µg·h/mL | CLss [1, 10]: 344.8 to 625.7 mL/h | CLss/wt [1, 10]: 0.167 to 0.257 mL/min/kg | Cmax [1, 10]: 16.8 to 24.8 µg/mL | tmax [1, 10]: 1.0 to 1.2 h | CLss [1, 11]: 757.2 mL/h | tmax [1, 11]: 1.1 h | AUCtau [1, 12]: 158.9 to 240.1 µg·h/mL | CLss [1, 12]: 512.6 to 944.2 mL/h | CLss/wt [1, 12]: 0.158 to 0.317 mL/min/kg | Cmax [1, 12]: 12.2 to 44.5 µg/mL | tmax [1, 12]: 1.0 to 2.0 h | CLss [1, 13]: 222.9 mL/h | Cmax [1, 13]: 21.9 µg/mL | AUCtau [1, 14]: 110.0 to 335.4 µg·h/mL | CLss [1, 14]: 132.7 to 490.9 mL/h | CLss/wt [1, 14]: 0.223 to 0.682 mL/min/kg | Cmax [1, 14]: 8.4 to 28.7 µg/mL | tmax [1, 14]: 1.0 to 2.1 h | AUCtau [1, 15]: 264.4 µg·h/mL | CLss [1, 15]: 332.1 mL/h | Cmax [1, 15]: 20.2 µg/mL | tmax [1, 15]: 2.1 h | AUCtau [1, 16]: 245.7 to 325.2 µg·h/mL | CLss [1, 16]: 255.3 to 384.7 mL/h | CLss/wt [1, 16]: 0.23 to 0.305 mL/min/kg | Cmax [1, 16]: 17.9 to 24.0 µg/mL | tmax [1, 16]: 2.0 to 2.1 h | AUCtau [1, 17]: 339.0 µg·h/mL | CLss [1, 17]: 306.8 mL/h | CLss/wt [1, 17]: 0.222 mL/min/kg | Cmax [1, 17]: 24.9 µg/mL | tmax [1, 17]: 1.1 h | AUCtau [1, 18]: 339.0 µg·h/mL | CLss [1, 18]: 306.8 mL/h | CLss/wt [1, 18]: 0.222 mL/min/kg | Cmax [1, 18]: 24.9 µg/mL | tmax [1, 18]: 1.1 h | CLss/wt, single child with highest value ([1]; Study 2101, 4.5 mg/kg, 2–5 years, single child, day 7): 0.682 mL/min/kg | AUC(0-t) ([1]; human, plasma, iv, 4.5 mg/kg, Mean AUCtau, Study 2102): ~300 µg·h/mL | Overall incidence of liver function abnormalities ([2]; pooled analysis of 3028 adult and pediatric patients): ≤ 3% | Adverse events (AEs) [2, 19]: 92% | Serious adverse events (SAEs) [2, 19]: ~34% | AEs related to micafungin treatment ([2]; pooled analysis, 296 children): 27% | Related AEs/SAEs leading to discontinuation of therapy ([2]; pooled analysis, 296 children): 2% | SAEs related to micafungin treatment ([2]; pooled analysis, n = 14/296 children): 5% | Cmax ([3]; 3 mg/kg): 30400 ng/mL | Mean weight-adjusted CLss ([3]; 3 mg/kg): 0.283 mL/min/kg | Cmax ([3]; 4 mg/kg): 43500 ng/mL | Mean weight-adjusted CLss ([3]; 4 mg/kg): 0.237 mL/min/kg | Mean AUCtau ([3]; 3 mg/kg): 190.5 µg·h/mL | Mean AUCtau ([3]; 4.0 mg/kg): 301.9 µg·h/mL | AUCtau ([4]; 100 mg/day): 101.6 µg·h/mL | AUCtau ([4]; 150 mg/day): 166.7 µg·h/mL
